Data: patent publication US20250295639A1, “METHODS FOR TREATING HEART DISEASES” (Cytokinetics, Incorporated, priority 2024, published 2025)
Values joined by “and” are separate entries in the source; they are usually repeats but may differ in a detail not shown here. Equal values may be shown once.

Tested on: patients with symptomatic oHCM
Experiment: SEQUOIA-HCM: cardiopulmonary exercise testing (CPET), incl. by baseline beta blocker use
Assay type: in vivo, human
Description: The primary objective of this trial was to evaluate the effect of aficamten on exercise capacity in patients with symptomatic oHCM. The indicated endpoint was a change in peak oxygen uptake (pVO2) by cardiopulmonary exercise testing (CPET) from baseline to Week 24. A further secondary objective was to evaluate the effect of aficamten on exercise capacity, as determined by change in total workload during CPET from baseline to Week 24. A further exploratory objective of this trial was to evaluate the effect of aficamten on other CPET parameters, as determined by changes from baseline to Week 24 in: (1) ventilator efficiency (VE/VCO2 slope); (2) circulatory power (VO2× systolic BP); and (3) ventilator anaerobic threshold (VAT). Cardiopulmonary Exercise Testing (CPET). All patients underwent CPET with gas-exchange analysis and the methodology will be standardized across all participating sites, as described in the CPET manual. Testing included continuous ECG monitoring by trained personnel and was performed in an area that was equipped for cardiopulmonary resuscitation. Treadmill was the preferred modality for exercise testing. […] Exercise protocols for both modalities were provided in the CPET manual. Patients had to use the same testing modality for all exercise tests during the trial. Whenever possible, CPET was administered by the same trial personnel using the same equipment and performed after the other trial procedures on that visit day (including echocardiogram, KCCQ, EQ-5D-5L, CGI, PGI-C, NYHA class, SAQ-7, vital signs, ECG, blood sampling, IP administration). Patients naïve to exercise protocols were familiarized with the technique during screening. All CPET testing was symptom-limited and patients were strongly encouraged to achieve maximal exertion and an RER ≥1.05. The reason(s) for termination of sub-maximal exercise tests were documented. A test was identified as being maximal effort if the RER is ≥1.05. The Week 24 CPET was performed at approximately the same time of day (eg, morning, mid-day, afternoon) as the baseline CPET at screening, at a consistent time after the last dose of beta blocker and IP. Whenever possible, patients performed exercise testing between three and ten hours after taking beta blocking agents. CPET End Points. We looked at whether aficamten would improve a novel measure of integrated exercise performance that combines complementary measures previously independently related to oHCM prognosis, and that incorporates both submaximal and maximal exercise capacity. A primary outcome was the change from baseline to week 24 in integrated exercise performance, defined as the 2-component Z-score of pVO2 and ventilatory efficiency (VE/VCO2 slope). Response rates for achieving clinically meaningful thresholds for change in pVO2 and correlations with clinical measures of treatment effect (health status, echocardiographic, cardiac biomarkers) were also assessed. The primary analysis was the change from baseline to Week 24 in integrated exercise performance, normalized to a composite of Z-scores for pVO2 and VE/VCO2 slope to capture physiologic responses to maximal and submaximal exercise. The Z-score was derived by reversing the directionality of VE/VCO2 slope such that increases in both Z-score components indicate benefit and equal weights were used for each Z-score component. Secondary end points included assessments for changes from baseline to week 24 in CPET-derived measures during 2 phases of exercise performance: (1) peak exercise (pVO2, peak workload, peak metabolic equivalents [METS], peak circulatory power [VO2× systolic blood pressure], exercise duration, peak respiratory exchange ratio [RER], heart rate reserve, peak heart rate, O2 pulse at peak exercise, proportionate pulse pressure); and (2) during submaximal exercise (pre-anaerobic threshold VE/VCO2 slope, VE/VCO2 slope throughout exercise, ventilatory power, ventilatory anaerobic threshold, and aerobic efficiency). Beta Blocker Co-administration. […]

[1] = Baseline Beta Blocker Use: Yes, Baseline
[2] = Baseline Beta Blocker Use: Yes, Week 24
[3] = aficamten versus placebo, 24 weeks
[4] = patients treated with aficamten

Compound: CCc1nc(-c2ccc3c(c2)CC[C@H]3NC(=O)c2cnn(C)c2)no1 [aficamten, (R)—N-(5-(5-ethyl-1,2,4-oxadiazol-3-yl)-2,3-dihydro-1H-inden-1-yl)-1-methyl-1H-pyrazole-4-carboxamide]
- peak METs (pVO2/3.5 (mL/kg/min)) on CPET, Week 24, Median (Baseline Beta Blocker Use: No, Week 24): 5.66 METs
- Change in Exercise Duration on CPET from Baseline to Week 24, LS Mean (SE) (Baseline Beta Blocker Use: Yes): 1.0 (0.22) minutes
- Change in Exercise Duration on CPET from Baseline to Week 24, LS Mean Diff vs. Placebo (SE) (Baseline Beta Blocker Use: Yes): 0.9 (0.30) minutes
- Change in Exercise Duration on CPET from Baseline to Week 24, Mean (SD) (Baseline Beta Blocker Use: Yes): 1.1 (1.98) minutes
- Change in Exercise Duration on CPET from Baseline to Week 24, Median (Baseline Beta Blocker Use: Yes): 0.5 min
- Change in peak METs from Baseline to Week 24, LS Mean (SE) (Baseline Beta Blocker Use: Yes): 0.40 (0.093) METs
- Change in peak METs from Baseline to Week 24, LS Mean Diff vs. Placebo (SE) (Baseline Beta Blocker Use: Yes): 0.46 (0.130) METs
- Change in peak METs from Baseline to Week 24, Mean (SD) (Baseline Beta Blocker Use: Yes): 0.41 (0.781) METs
- Change in peak METs from Baseline to Week 24, Median (Baseline Beta Blocker Use: Yes): 0.31 METs
- Exercise Duration on CPET, Baseline, Mean (SD) [1]: 11.4 (2.55) minutes
- Exercise Duration on CPET, Baseline, Median [1]: 11.1 min
- peak METs (pVO2/3.5 (mL/kg/min)) on CPET, Baseline, Mean (SD) [1]: 5.24 (1.251) METs
- peak METs (pVO2/3.5 (mL/kg/min)) on CPET, Baseline, Median [1]: 5.28 METs
- Exercise Duration on CPET, Week 24, Mean (SD) [2]: 12.5 (3.61) minutes
- Exercise Duration on CPET, Week 24, Median [2]: 12.4 min
- peak METs (pVO2/3.5 (mL/kg/min)) on CPET, Week 24, Mean (SD) [2]: 5.70 (1.497) METs
- peak METs (pVO2/3.5 (mL/kg/min)) on CPET, Week 24, Median [2]: 5.64 METs
- patients with large pVO2 deteriorations/reductions (≥3.0 mL/kg/min) (aficamten group, 24 weeks): 2%
- Any Deterioration in pVO2, NNT [3]: −3.8
- Any Deterioration in pVO2, OR [3]: 0.32
- Any Deterioration in pVO2, Risk Difference [3]: −26%
- Any Improvement in pVO2, NNT [3]: 3.8 and < 4
- Any Improvement in pVO2, OR [3]: 3.09
- Any Improvement in pVO2, Risk Difference [3]: +26%
- Large Improvement in pVO2, NNT [3]: 6.3
- Large Improvement in pVO2, OR [3]: 2.44
- Large Improvement in pVO2, Risk Difference [3]: +15.%
- Moderate/Large Improvement in pVO2, NNT [3]: 4.7
- Moderate/Large Improvement in pVO2, OR [3]: 2.44
- Moderate/Large Improvement in pVO2, Risk Difference [3]: +21%
- Any Improvement in pVO2, NNT (aficamten versus placebo, 24 weeks, listed as Aficamten): 3.8
- Aerobic efficiency, Adjusted difference (LS mean treatment difference) (aficamten vs placebo, week 24): 0.2 mL/min/watt
- Exercise duration, Adjusted difference (LS mean treatment difference) (aficamten vs placebo, week 24): 1.0 min
- Heart rate reserve, Adjusted difference (LS mean treatment difference) (aficamten vs placebo, week 24): 6
- Integrated 2 component Z-score metric, Adjusted difference (LS mean treatment difference) (aficamten vs placebo, week 24): +0.35
- O2 pulse at peak exercise, Adjusted difference (LS mean treatment difference) (aficamten vs placebo, week 24): 0.003 mL/beat
- Peak circulatory power, Adjusted difference (LS mean treatment difference) (aficamten vs placebo, week 24): 586 mmHg*mL/min/kg
- Peak heart rate, Adjusted difference (LS mean treatment difference) (aficamten vs placebo, week 24): 9 beats/min
- Peak respiratory exchange ratio, Adjusted difference (LS mean treatment difference) (aficamten vs placebo, week 24): 0.00
- Peak workload, Adjusted difference (LS mean treatment difference) (aficamten vs placebo, week 24): 12 watt
- Proportionate pulse pressure (peak), Adjusted difference (LS mean treatment difference) (aficamten vs placebo, week 24): 0.01
- Proportionate pulse pressure (rest), Adjusted difference (LS mean treatment difference) (aficamten vs placebo, week 24): −0.01
- Ventilatory anaerobic threshold, Adjusted difference (LS mean treatment difference) (aficamten vs placebo, week 24): 59 mL
- Ventilatory efficiency pre-anaerobic threshold (VE/VCO2 slope), Adjusted difference (LS mean treatment difference) (aficamten vs placebo, week 24): −1.5
- Ventilatory efficiency throughout exercise (VE/VCO2 slope), Adjusted difference (LS mean treatment difference) (aficamten vs placebo, week 24): −2.3
- Ventilatory power, Adjusted difference (LS mean treatment difference) (aficamten vs placebo, week 24): 0.9 mmHg
- pVO2, Adjusted difference (LS mean treatment difference) (aficamten vs placebo, week 24): 1.7 mL/kg/min
- Integrated 2 component Z-score metric, Adjusted difference (LS mean treatment difference) (aficamten vs placebo, week 24, listed as Aficamten): 0.35
- improvement in Exercise Duration on CPET: influence of beta blockers (baseline to Week 24): not significantly diminished by the use of beta blockers
- improvement in peak metabolic equivalents (peak METs) on CPET: influence of beta blockers (baseline to Week 24): not significantly diminished by the use of beta blockers
- times less likely to experience worsening of pVO2 than those on placebo (categorical threshold analyses): more than 5 times
- patients who experienced an improvement in pVO2 [4]: 72.2%
- patients with large improvement (≥3.0 mL/kg/min) in pVO2 [4]: 27.8%
- patients with moderate improvement (≥1.5 to <3.0 mL/kg/min) in pVO2 [4]: 21.8%
- patients with small improvement (0 to <1.5) in pVO2 [4]: 22.6%
- LSM difference in pVO2 (95% CI) (patients who were also on beta blockers): 1.6 (0.7 to 2.5) mL/kg/min
- LSM difference in pVO2 (95% CI) (patients who were not on beta blockers): 1.9 (0.8 to 3.1) mL/kg/min
